From the kinase profiling compilation of Christmann-Franck et al. (2016)

Legend:
Assay in all cases: radiometric filter-binding kinase assay
BTK (human) = BTK (human) (UniProt Q06187)
CDK2 CCNA2 (human) = CDK2 CCNA2 (human) (UniProt P20248+P24941)
CHEK1 (human) = CHEK1 (human) (UniProt O14757)
CSNK2A1 (human) = CSNK2A1 (human) (UniProt P68400)
DAPK1 (human) = DAPK1 (human) (UniProt P53355)
EEF2K (human) = EEF2K (human) (UniProt O00418)
EPHA4 (human) = EPHA4 (human) (UniProt P54764)
EPHB1 (human) = EPHB1 (human) (UniProt P54762)
EPHB4 (human) = EPHB4 (human) (UniProt P54760)
GCK (human) = GCK (human) (UniProt Q12851)
Sequence of GCK (human) (Q12851 whole entry, looked up): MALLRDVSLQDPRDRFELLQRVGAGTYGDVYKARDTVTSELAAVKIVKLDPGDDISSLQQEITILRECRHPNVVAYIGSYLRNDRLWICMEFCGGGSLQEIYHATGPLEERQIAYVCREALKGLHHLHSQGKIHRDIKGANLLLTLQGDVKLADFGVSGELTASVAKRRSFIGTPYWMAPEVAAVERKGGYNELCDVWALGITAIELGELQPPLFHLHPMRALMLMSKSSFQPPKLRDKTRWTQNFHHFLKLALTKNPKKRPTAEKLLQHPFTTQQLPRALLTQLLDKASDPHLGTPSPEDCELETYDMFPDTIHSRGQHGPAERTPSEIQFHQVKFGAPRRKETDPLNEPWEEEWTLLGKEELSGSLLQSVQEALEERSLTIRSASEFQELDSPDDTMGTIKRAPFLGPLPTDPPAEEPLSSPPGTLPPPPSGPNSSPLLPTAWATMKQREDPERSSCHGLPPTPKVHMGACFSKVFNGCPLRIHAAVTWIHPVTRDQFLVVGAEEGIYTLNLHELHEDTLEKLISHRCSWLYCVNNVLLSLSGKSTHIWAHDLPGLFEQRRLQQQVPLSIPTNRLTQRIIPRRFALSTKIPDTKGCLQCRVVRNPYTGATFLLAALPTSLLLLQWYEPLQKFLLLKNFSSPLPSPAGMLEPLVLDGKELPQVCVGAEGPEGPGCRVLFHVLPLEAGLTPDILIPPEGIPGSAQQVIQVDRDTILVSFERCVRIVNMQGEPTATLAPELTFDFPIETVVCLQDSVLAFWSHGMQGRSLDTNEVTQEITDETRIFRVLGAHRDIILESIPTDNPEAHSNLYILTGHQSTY

IKBKB (human) = IKBKB (human) (UniProt O14920)
Sequence of IKBKB (human) (O14920 whole entry, looked up): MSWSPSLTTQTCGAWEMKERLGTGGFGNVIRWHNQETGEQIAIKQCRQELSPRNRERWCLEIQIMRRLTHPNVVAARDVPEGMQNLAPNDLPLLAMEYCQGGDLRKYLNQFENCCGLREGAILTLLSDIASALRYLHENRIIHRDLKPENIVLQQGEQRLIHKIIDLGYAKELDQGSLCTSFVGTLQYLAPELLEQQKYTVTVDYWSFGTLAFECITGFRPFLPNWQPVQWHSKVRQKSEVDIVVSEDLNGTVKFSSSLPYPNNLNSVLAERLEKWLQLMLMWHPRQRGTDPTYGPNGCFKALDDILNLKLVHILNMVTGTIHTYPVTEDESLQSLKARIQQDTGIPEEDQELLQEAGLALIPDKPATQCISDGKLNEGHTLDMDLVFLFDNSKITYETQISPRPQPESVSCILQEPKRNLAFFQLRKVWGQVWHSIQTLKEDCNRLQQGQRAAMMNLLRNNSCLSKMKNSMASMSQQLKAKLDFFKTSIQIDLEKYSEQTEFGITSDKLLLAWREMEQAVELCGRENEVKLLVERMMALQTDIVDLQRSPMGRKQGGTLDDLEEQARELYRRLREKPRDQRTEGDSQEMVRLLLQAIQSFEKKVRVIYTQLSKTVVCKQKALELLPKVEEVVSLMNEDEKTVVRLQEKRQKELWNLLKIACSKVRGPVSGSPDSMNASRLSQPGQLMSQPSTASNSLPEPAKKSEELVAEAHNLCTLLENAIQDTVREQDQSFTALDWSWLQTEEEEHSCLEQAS

INSRR (human) = INSRR (human) (UniProt P14616)
MAP2K1 (human) = MAP2K1 (human) (UniProt Q02750)
MAP2K2 (human) = MAP2K2 (human) (UniProt P36507)
Sequence of MAP2K2 (human) (P36507 whole entry, looked up): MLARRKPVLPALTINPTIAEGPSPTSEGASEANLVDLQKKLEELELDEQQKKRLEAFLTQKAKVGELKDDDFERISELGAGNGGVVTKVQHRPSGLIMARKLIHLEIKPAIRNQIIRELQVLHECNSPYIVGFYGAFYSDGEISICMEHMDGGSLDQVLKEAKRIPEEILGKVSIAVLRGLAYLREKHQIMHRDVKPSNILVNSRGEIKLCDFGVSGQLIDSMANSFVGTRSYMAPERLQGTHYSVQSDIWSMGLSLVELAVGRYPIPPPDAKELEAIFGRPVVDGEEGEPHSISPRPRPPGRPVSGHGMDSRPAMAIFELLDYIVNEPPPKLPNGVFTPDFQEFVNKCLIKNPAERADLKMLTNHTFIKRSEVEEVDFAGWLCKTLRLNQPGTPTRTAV

MAP3K5 (human) = MAP3K5 (human) (UniProt Q99683)
Sequence of MAP3K5 (human) (Q99683 whole entry, looked up): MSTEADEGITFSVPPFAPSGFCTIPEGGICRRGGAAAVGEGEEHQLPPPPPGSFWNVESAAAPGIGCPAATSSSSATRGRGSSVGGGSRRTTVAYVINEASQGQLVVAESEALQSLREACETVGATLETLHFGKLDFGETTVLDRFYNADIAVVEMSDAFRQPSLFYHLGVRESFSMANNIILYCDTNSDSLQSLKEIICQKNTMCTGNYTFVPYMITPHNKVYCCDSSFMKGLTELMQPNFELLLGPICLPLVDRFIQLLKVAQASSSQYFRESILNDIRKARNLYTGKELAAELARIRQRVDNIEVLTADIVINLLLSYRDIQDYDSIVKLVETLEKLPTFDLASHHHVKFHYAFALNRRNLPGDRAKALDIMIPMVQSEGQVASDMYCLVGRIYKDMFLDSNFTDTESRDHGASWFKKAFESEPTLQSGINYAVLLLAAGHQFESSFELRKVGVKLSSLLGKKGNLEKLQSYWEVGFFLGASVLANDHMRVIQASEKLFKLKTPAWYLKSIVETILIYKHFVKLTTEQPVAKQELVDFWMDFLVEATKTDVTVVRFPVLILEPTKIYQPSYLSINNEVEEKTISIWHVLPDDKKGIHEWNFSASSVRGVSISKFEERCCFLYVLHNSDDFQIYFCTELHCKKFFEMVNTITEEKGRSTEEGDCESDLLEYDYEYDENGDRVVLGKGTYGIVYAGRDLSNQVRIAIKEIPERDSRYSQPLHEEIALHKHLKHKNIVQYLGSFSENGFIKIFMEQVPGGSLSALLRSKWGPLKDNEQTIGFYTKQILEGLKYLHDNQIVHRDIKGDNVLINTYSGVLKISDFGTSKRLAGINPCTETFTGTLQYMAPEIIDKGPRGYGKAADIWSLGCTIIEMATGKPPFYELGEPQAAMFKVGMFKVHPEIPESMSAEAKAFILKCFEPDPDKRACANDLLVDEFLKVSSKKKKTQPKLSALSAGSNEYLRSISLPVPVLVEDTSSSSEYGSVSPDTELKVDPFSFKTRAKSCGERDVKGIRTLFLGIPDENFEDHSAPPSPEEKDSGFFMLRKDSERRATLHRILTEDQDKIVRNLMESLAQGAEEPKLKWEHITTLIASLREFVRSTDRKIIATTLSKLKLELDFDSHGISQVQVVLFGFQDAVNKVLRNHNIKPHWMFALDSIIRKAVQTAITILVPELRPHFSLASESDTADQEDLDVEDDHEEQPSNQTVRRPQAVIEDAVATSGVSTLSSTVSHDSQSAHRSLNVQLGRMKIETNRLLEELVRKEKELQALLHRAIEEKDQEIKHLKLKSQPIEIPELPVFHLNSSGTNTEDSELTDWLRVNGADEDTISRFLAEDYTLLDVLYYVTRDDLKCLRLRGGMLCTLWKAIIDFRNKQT

MAP3K9 (human) = MAP3K9 (human) (UniProt P80192)
MAPK9 (human) = MAPK9 (human) (UniProt P45984)
MAPKAPK2 (human) = MAPKAPK2 (human) (UniProt P49137)
MARK3 (human) = MARK3 (human) (UniProt P27448)
MARK4 (human) = MARK4 (human) (UniProt Q96L34)
Sequence of MARK4 (human) (Q96L34 whole entry, looked up): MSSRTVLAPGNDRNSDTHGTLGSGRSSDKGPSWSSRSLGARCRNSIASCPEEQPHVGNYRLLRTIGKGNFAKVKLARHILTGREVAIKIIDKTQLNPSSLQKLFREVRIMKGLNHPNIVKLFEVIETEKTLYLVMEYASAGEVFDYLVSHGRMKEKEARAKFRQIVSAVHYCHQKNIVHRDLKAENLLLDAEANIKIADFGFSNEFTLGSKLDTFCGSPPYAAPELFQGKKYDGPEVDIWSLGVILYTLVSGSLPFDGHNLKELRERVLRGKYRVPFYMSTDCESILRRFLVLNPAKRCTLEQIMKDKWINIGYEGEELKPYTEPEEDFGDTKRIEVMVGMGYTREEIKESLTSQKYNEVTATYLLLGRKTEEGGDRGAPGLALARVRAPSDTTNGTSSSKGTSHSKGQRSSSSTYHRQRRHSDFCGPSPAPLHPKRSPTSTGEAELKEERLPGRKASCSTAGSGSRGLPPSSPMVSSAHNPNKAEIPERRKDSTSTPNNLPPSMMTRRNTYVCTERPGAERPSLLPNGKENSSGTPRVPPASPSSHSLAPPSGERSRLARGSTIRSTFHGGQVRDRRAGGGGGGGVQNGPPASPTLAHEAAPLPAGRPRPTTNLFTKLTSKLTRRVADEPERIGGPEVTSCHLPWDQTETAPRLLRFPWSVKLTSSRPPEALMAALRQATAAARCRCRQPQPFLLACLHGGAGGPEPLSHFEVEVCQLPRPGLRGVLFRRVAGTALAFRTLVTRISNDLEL

MKNK2 (human) = MKNK2 (human) (UniProt Q9HBH9)
MYLK (human) = MYLK (human) (UniProt Q15746)
NEK6 (human) = NEK6 (human) (UniProt Q9HC98)
[1] = test system: PAK2 (human), Q13177 [T402E]
PAK6 (human) = PAK6 (human) (UniProt Q9NQU5)
PIM1 (human) = PIM1 (human) (UniProt P11309)
PIM3 (human) = PIM3 (human) (UniProt Q86V86)
PKN2 (human) = PKN2 (human) (UniProt Q16513)
RPS6KA5 KD1 KD2 (human) = RPS6KA5 KD1 KD2 (human) (UniProt O75582)
[2] = test system: RPS6KB1 (human), P23443 [T412E]
SRPK1 (human) = SRPK1 (human) (UniProt Q96SB4)
STK3 (human) = STK3 (human) (UniProt Q13188)
TBK1 (human) = TBK1 (human) (UniProt Q9UHD2)
TTK (human) = TTK (human) (UniProt P33981)
YES1 (human) = YES1 (human) (UniProt P07947)
PIM2 (human) = PIM2 (human) (UniProt Q9P1W9)

Sequence of EEF2K (human) (O00418 whole entry, looked up): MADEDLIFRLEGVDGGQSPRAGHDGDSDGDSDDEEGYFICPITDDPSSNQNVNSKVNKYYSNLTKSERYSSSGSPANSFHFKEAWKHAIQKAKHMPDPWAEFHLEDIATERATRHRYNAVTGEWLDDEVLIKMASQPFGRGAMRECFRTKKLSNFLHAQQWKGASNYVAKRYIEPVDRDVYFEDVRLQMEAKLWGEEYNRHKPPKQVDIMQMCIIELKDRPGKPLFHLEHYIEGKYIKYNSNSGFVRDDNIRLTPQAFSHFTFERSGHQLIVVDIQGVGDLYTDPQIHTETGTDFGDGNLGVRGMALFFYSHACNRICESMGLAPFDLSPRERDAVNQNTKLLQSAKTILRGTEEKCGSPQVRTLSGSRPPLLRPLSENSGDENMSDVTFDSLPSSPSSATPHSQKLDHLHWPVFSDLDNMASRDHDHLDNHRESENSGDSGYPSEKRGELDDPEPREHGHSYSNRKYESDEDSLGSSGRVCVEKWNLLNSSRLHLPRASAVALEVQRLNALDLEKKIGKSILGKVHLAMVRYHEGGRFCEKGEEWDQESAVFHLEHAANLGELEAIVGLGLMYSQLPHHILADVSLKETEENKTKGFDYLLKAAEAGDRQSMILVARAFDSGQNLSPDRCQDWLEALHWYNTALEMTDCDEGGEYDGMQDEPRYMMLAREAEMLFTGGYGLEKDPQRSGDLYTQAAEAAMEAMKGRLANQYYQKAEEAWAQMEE

O=C(NOC[C@H](O)CO)c1ccc(F)c(F)c1Nc1ccc(I)cc1Cl
residual activity (BTK (human); compound 1.0 µM): 110%
residual activity (BTK (human); compound 10.0 µM): 100%
residual activity (CDK2 CCNA2 (human); compound 1.0 µM): 110%
residual activity (CDK2 CCNA2 (human); compound 10.0 µM): 109%
residual activity (CHEK1 (human); compound 1.0 µM): 130%
residual activity (CHEK1 (human); compound 10.0 µM): 122%
residual activity (CSNK2A1 (human); compound 1.0 µM): 107%
residual activity (CSNK2A1 (human); compound 10.0 µM): 118%
residual activity (DAPK1 (human); compound 1.0 µM): 96%
residual activity (DAPK1 (human); compound 10.0 µM): 90%
residual activity (EEF2K (human); compound 1.0 µM): 83%
residual activity (EEF2K (human); compound 10.0 µM): 93%
residual activity (EPHA4 (human); compound 1.0 µM): 86%
residual activity (EPHA4 (human); compound 10.0 µM): 89%
residual activity (EPHB1 (human); compound 1.0 µM): 95%
residual activity (EPHB1 (human); compound 10.0 µM): 115%
residual activity (EPHB4 (human); compound 1.0 µM): 90%
residual activity (EPHB4 (human); compound 10.0 µM): 99%
residual activity (GCK (human); compound 1.0 µM): 90%
residual activity (IKBKB (human); compound 1.0 µM): 88%
residual activity (IKBKB (human); compound 10.0 µM): 103%
residual activity (INSRR (human); compound 1.0 µM): 106%
residual activity (MAP2K1 (human); compound 1.0 µM): 18%
residual activity (MAP2K1 (human); compound 10.0 µM): 2%
residual activity (MAP2K2 (human); compound 1.0 µM): 54%
residual activity (MAP2K2 (human); compound 10.0 µM): 16%
residual activity (MAP3K5 (human); compound 1.0 µM): 108%
residual activity (MAP3K5 (human); compound 10.0 µM): 116%
residual activity (MAP3K9 (human); compound 1.0 µM): 95%
residual activity (MAP3K9 (human); compound 10.0 µM): 108%
residual activity (MAPK9 (human); compound 1.0 µM): 90%
residual activity (MAPK9 (human); compound 10.0 µM): 105%
residual activity (MAPKAPK2 (human); compound 1.0 µM): 103%
residual activity (MAPKAPK2 (human); compound 10.0 µM): 102%
residual activity (MARK3 (human); compound 1.0 µM): 91%
residual activity (MARK3 (human); compound 10.0 µM): 74%
residual activity (MARK4 (human); compound 1.0 µM): 112%
residual activity (MARK4 (human); compound 10.0 µM): 127%
residual activity (MKNK2 (human); compound 1.0 µM): 93%
residual activity (MKNK2 (human); compound 10.0 µM): 110%
residual activity (MYLK (human); compound 10.0 µM): 98%
residual activity (NEK6 (human); compound 1.0 µM): 95%
residual activity (NEK6 (human); compound 10.0 µM): 110%
residual activity ([1]; compound 10.0 µM): 91%
residual activity (PAK6 (human); compound 1.0 µM): 95%
residual activity (PAK6 (human); compound 10.0 µM): 105%
residual activity (PIM1 (human); compound 1.0 µM): 92%
residual activity (PIM1 (human); compound 10.0 µM): 73%
residual activity (PIM3 (human); compound 1.0 µM): 78%
residual activity (PIM3 (human); compound 10.0 µM): 72%
residual activity (PKN2 (human); compound 1.0 µM): 82%
residual activity (PKN2 (human); compound 10.0 µM): 83%
residual activity (RPS6KA5 KD1 KD2 (human); compound 1.0 µM): 97%
residual activity (RPS6KA5 KD1 KD2 (human); compound 10.0 µM): 96%
residual activity ([2]; compound 1.0 µM): 97%
residual activity ([2]; compound 10.0 µM): 81%
residual activity (SRPK1 (human); compound 1.0 µM): 80%
residual activity (SRPK1 (human); compound 10.0 µM): 95%
residual activity (STK3 (human); compound 1.0 µM): 83%
residual activity (STK3 (human); compound 10.0 µM): 70%
residual activity (TBK1 (human); compound 1.0 µM): 117%
residual activity (TBK1 (human); compound 10.0 µM): 101%
residual activity (TTK (human); compound 1.0 µM): 98%
residual activity (TTK (human); compound 10.0 µM): 121%
residual activity (YES1 (human); compound 1.0 µM): 82%
residual activity (YES1 (human); compound 10.0 µM): 86%

Cc1cc(NC(=O)c2cccc(NC(=O)/C=C/CN(C)C)c2)ccc1Nc1nccc(-c2cccnc2)n1
residual activity (CDK2 CCNA2 (human); compound 0.1 µM): 107%
residual activity (CDK2 CCNA2 (human); compound 1.0 µM): 92%
residual activity (CHEK1 (human); compound 0.1 µM): 102%
residual activity (CHEK1 (human); compound 1.0 µM): 87%
residual activity (CSNK2A1 (human); compound 0.1 µM): 93%
residual activity (CSNK2A1 (human); compound 1.0 µM): 77%
residual activity (DAPK1 (human); compound 0.1 µM): 102%
residual activity (DAPK1 (human); compound 1.0 µM): 90%
residual activity (EEF2K (human); compound 0.1 µM): 98%
residual activity (EEF2K (human); compound 1.0 µM): 95%
residual activity (EPHA4 (human); compound 0.1 µM): 87%
residual activity (EPHA4 (human); compound 1.0 µM): 80%
residual activity (EPHB1 (human); compound 0.1 µM): 97%
residual activity (EPHB1 (human); compound 1.0 µM): 95%
residual activity (EPHB4 (human); compound 0.1 µM): 97%
residual activity (EPHB4 (human); compound 1.0 µM): 98%
residual activity (GCK (human); compound 0.1 µM): 98%
residual activity (GCK (human); compound 1.0 µM): 73%
residual activity (IKBKB (human); compound 0.1 µM): 62%
residual activity (IKBKB (human); compound 1.0 µM): 74%
residual activity (INSRR (human); compound 0.1 µM): 93%
residual activity (MAP2K1 (human); compound 0.1 µM): 107%
residual activity (MAP2K1 (human); compound 1.0 µM): 96%
residual activity (MAP2K2 (human); compound 0.1 µM): 98%
residual activity (MAP2K2 (human); compound 1.0 µM): 92%
residual activity (MAP3K5 (human); compound 0.1 µM): 100%
residual activity (MAP3K5 (human); compound 1.0 µM): 91%
residual activity (MAP3K9 (human); compound 0.1 µM): 98%
residual activity (MAP3K9 (human); compound 1.0 µM): 88%
residual activity (MAPK9 (human); compound 1.0 µM): 17%
residual activity (MAPKAPK2 (human); compound 0.1 µM): 102%
residual activity (MAPKAPK2 (human); compound 1.0 µM): 100%
residual activity (MARK3 (human); compound 0.1 µM): 92%
residual activity (MARK3 (human); compound 1.0 µM): 93%
residual activity (MARK4 (human); compound 0.1 µM): 101%
residual activity (MARK4 (human); compound 1.0 µM): 84%
residual activity (MKNK2 (human); compound 0.1 µM): 84%
residual activity (MKNK2 (human); compound 1.0 µM): 67%
residual activity (MYLK (human); compound 0.1 µM): 97%
residual activity (MYLK (human); compound 1.0 µM): 96%
residual activity (NEK6 (human); compound 0.1 µM): 95%
residual activity (NEK6 (human); compound 1.0 µM): 87%
residual activity ([1]; compound 0.1 µM): 99%
residual activity ([1]; compound 1.0 µM): 90%
residual activity (PAK6 (human); compound 0.1 µM): 110%
residual activity (PAK6 (human); compound 1.0 µM): 96%
residual activity (PIM1 (human); compound 0.1 µM): 104%
residual activity (PIM1 (human); compound 1.0 µM): 89%
residual activity (PIM2 (human); compound 0.1 µM): 104%
residual activity (PIM2 (human); compound 1.0 µM): 99%
residual activity (PIM3 (human); compound 1.0 µM): 83%
residual activity (PKN2 (human); compound 0.1 µM): 112%
residual activity (PKN2 (human); compound 1.0 µM): 95%
residual activity (RPS6KA5 KD1 KD2 (human); compound 0.1 µM): 91%
residual activity (RPS6KA5 KD1 KD2 (human); compound 1.0 µM): 80%
residual activity ([2]; compound 0.1 µM): 98%
residual activity ([2]; compound 1.0 µM): 93%
residual activity (SRPK1 (human); compound 0.1 µM): 97%
residual activity (SRPK1 (human); compound 1.0 µM): 84%
residual activity (STK3 (human); compound 1.0 µM): 72%
residual activity (TBK1 (human); compound 1.0 µM): 106%
residual activity (TTK (human); compound 0.1 µM): 85%
residual activity (TTK (human); compound 1.0 µM): 65%
residual activity (YES1 (human); compound 0.1 µM): 87%
residual activity (YES1 (human); compound 1.0 µM): 39%
